In article PMC8640094, “Diaportones A–C: Three New Metabolites From Endophytic Fungus Diaporthe foeniculina BZM-15” (Frontiers in Chemistry, 2021):

Experiments:
HepG2 (hepatoma cancer) = assay: MTT cytotoxicity assay, HepG2 cells; format: cell-based, human; conditions: Homo sapiens; for inhibition at 1 µM / inhibition at 2 µM / inhibition at 4 µM / inhibition at 8 µM / inhibition at 16 µM / inhibition at 32 µM / inhibition at 64 µM / inhibition at 128 µM: HepG2, 72 h, three replicates, read-out: cell inhibition; for inhibition at 1 µM: HepG2, c 1.00 μM; for inhibition at 2 µM: HepG2, c 2.00 μM; for inhibition at 4 µM: HepG2, c 4.00 μM; for inhibition at 8 µM: HepG2, c 8.00 μM; for inhibition at 16 µM: HepG2, c 16.00 μM; for inhibition at 32 µM: HepG2, c 32.00 μM; for inhibition at 64 µM: HepG2, c 64.00 μM; for inhibition at 128 µM: HepG2, c 128.00 μM; for IC50: HepG2, MTT, 72 h, mean ± SD (n = 3)
Protocol: (§1) The cytotoxicity of all compounds against three human tumor cell lines, SF-268 (CNS cancer), MCF-7 (breast cancer), and HepG2 (hepatoma cancer), and normal cell line LX-2 was tested using the MTT assay. Adriamycin was used as a positive control. All cells were seeded into 96-well plates at 5 × 10^4 cells/ml and incubated at 37°C under a 5% CO2 atmosphere for 24 h. Then, the tested compounds were added. After 72 h, MTT solution was added into each well, which was further incubated. The cell-free supernatant was removed and formazan crystals were subsequently dissolved in DMSO. Optical density (OD) was recorded at 490 nm on a microplate reader to calculate the IC50 values.

SF-268 (CNS cancer) = assay: MTT cytotoxicity assay, SF-268 cells; format: cell-based, human; conditions: Homo sapiens; for inhibition at 1 µM / inhibition at 2 µM / inhibition at 4 µM / inhibition at 8 µM / inhibition at 16 µM / inhibition at 32 µM / inhibition at 64 µM / inhibition at 128 µM: SF-268, 72 h, SF268 cells, triplicate values, read-out: cell inhibition; for inhibition at 1 µM: c 1.00 μM; for inhibition at 2 µM: c 2.00 μM; for inhibition at 4 µM: c 4.00 μM; for inhibition at 8 µM: c 8.00 μM; for inhibition at 16 µM: c 16.00 μM; for inhibition at 32 µM: c 32.00 μM; for inhibition at 64 µM: c 64.00 μM; for inhibition at 128 µM: c 128.00 μM; for IC50: SF-268, MTT, 72 h, mean ± SD (n = 3), read-out: IC50 SF268
Protocol: as §1

MCF-7 (breast cancer) = assay: MTT cytotoxicity assay, MCF-7 cells; format: cell-based, human; conditions: Homo sapiens; for inhibition at 1 µM / inhibition at 2 µM / inhibition at 4 µM / inhibition at 8 µM / inhibition at 16 µM / inhibition at 32 µM / inhibition at 64 µM / inhibition at 128 µM: MCF7, 72 h, three replicates, read-out: cell inhibition; for inhibition at 1 µM: MCF-7, c 1.00 μM; for inhibition at 2 µM: MCF-7, c 2.00 μM; for inhibition at 4 µM: MCF-7, c 4.00 μM; for inhibition at 8 µM: MCF-7, c 8.00 μM; for inhibition at 16 µM: MCF-7, c 16.00 μM; for inhibition at 32 µM: MCF-7, c 32.00 μM; for inhibition at 64 µM: MCF-7, c 64.00 μM; for inhibition at 128 µM: MCF-7, c 128.00 μM; for IC50: MCF7, MTT, 72 h, mean ± SD (n = 3)
Protocol: as §1, with “Adriamycin was used as a positive control.” left out

normal cell line LX-2 = assay: MTT cytotoxicity assay, normal cell line LX-2; format: cell-based; conditions: 72 h; for inhibition at 1 µM: LX-2, c 1.00 μM; for inhibition at 1 µM / inhibition at 2 µM / inhibition at 4 µM / inhibition at 8 µM / inhibition at 16 µM / inhibition at 32 µM / inhibition at 64 µM / inhibition at 128 µM: three replicates; for inhibition at 2 µM: LX-2, c 2.00 μM; for inhibition at 4 µM: LX-2, c 4.00 μM; for inhibition at 8 µM: LX-2, c 8.00 μM; for inhibition at 16 µM: LX-2, c 16.00 μM; for inhibition at 32 µM: LX-2, c 32.00 μM; for inhibition at 64 µM: LX-2, c 64.00 μM; for inhibition at 128 µM: LX-2, c 128.00 μM; for IC50: MTT, mean ± SD (n = 3)
Protocol: as §1, with “Adriamycin was used as a positive control.” left out

| SMILES | inhibition at 1 µM (HepG2 (hepatoma cancer)) | inhibition at 2 µM (HepG2 (hepatoma cancer)) | inhibition at 4 µM (HepG2 (hepatoma cancer)) | inhibition at 8 µM (HepG2 (hepatoma cancer)) | inhibition at 16 µM (HepG2 (hepatoma cancer)) | inhibition at 32 µM (HepG2 (hepatoma cancer)) | inhibition at 64 µM (HepG2 (hepatoma cancer)) | inhibition at 128 µM (HepG2 (hepatoma cancer)) | IC50 (HepG2 (hepatoma cancer)) | inhibition at 1 µM (SF-268 (CNS cancer)) | inhibition at 2 µM (SF-268 (CNS cancer)) | inhibition at 4 µM (SF-268 (CNS cancer)) | inhibition at 8 µM (SF-268 (CNS cancer)) | inhibition at 16 µM (SF-268 (CNS cancer)) | inhibition at 32 µM (SF-268 (CNS cancer)) | inhibition at 64 µM (SF-268 (CNS cancer)) | inhibition at 128 µM (SF-268 (CNS cancer)) | IC50 (SF-268 (CNS cancer)) | inhibition at 1 µM (MCF-7 (breast cancer)) | inhibition at 2 µM (MCF-7 (breast cancer)) | also measured |
| --- | --- | --- | --- | --- | --- | --- | --- | --- | --- | --- | --- | --- | --- | --- | --- | --- | --- | --- | --- | --- | --- |
| CCCC(O)C1=C(C)C(=O)CC1C (centres unmarked) [compound 4, phomotenone] | 6.5% | 7.63% | 14.3% | 20.2% | 31.4% | 37.3% | 54.7% | 73% | > 40 µM | 5.57% | 8.31% | 7.46% | 13.1% | 23.8% | 46.7% | 74.3% | 82.1% | > 40 µM | 3.45% | 7.63% | inhibition at 4 µM (MCF-7 (breast cancer)): 13.1%; inhibition at 8 µM (MCF-7 (breast cancer)): 20.4%; inhibition at 16 µM (MCF-7 (breast cancer)): 27.3%; inhibition at 32 µM (MCF-7 (breast cancer)): 36.1%; inhibition at 64 µM (MCF-7 (breast cancer)): 50.6%; inhibition at 128 µM (MCF-7 (breast cancer)): 72.2%; IC50 (MCF-7 (breast cancer)): > 40 µM; inhibition at 1 µM (normal cell line LX-2): 7.34%; inhibition at 2 µM (normal cell line LX-2): 9.3%; inhibition at 4 µM (normal cell line LX-2): 12%; inhibition at 8 µM (normal cell line LX-2): 18.1%; inhibition at 16 µM (normal cell line LX-2): 24.6%; inhibition at 32 µM (normal cell line LX-2): 41.1%; inhibition at 64 µM (normal cell line LX-2): 70%; inhibition at 128 µM (normal cell line LX-2): 87.1%; IC50 (normal cell line LX-2): > 40 µM |
| CC(=O)OC(C)C(C)=CC=CC1(C)OC(=O)C(C)C1O (centres unmarked) [compound 1, diaportone A] | 8.32% | 14.4% | 21.3% | 23.1% | 30.1% | 46.5% | 71.3% | 80.3% | > 40 µM | 2.75% | 3.91% | 3.45% | 6.33% | 15.7% | 22.2% | 37.9% | 69.3% | > 40 µM | 7.76% | 12.6% | inhibition at 4 µM (MCF-7 (breast cancer)): 17.8%; inhibition at 8 µM (MCF-7 (breast cancer)): 23.1%; inhibition at 16 µM (MCF-7 (breast cancer)): 29.1%; inhibition at 32 µM (MCF-7 (breast cancer)): 32.5%; inhibition at 64 µM (MCF-7 (breast cancer)): 78.1%; inhibition at 128 µM (MCF-7 (breast cancer)): 83.4%; IC50 (MCF-7 (breast cancer)): > 40 µM; inhibition at 1 µM (normal cell line LX-2): 3.47%; inhibition at 2 µM (normal cell line LX-2): 5.08%; inhibition at 4 µM (normal cell line LX-2): 9.11%; inhibition at 8 µM (normal cell line LX-2): 8.98%; inhibition at 16 µM (normal cell line LX-2): 15.6%; inhibition at 32 µM (normal cell line LX-2): 31.7%; inhibition at 64 µM (normal cell line LX-2): 45.1%; inhibition at 128 µM (normal cell line LX-2): 70.3%; IC50 (normal cell line LX-2): > 40 µM |
| COc1cccc2c1C(=O)c1c(O)c3c(c(O)c1C2=O)C[C@@](O)(C(=O)CO)C[C@@H]3O[C@H]1C[C@H](N)[C@H](O)[C@H](C)O1 [Adriamycin, reference compound] | 33.1% | 48.5% | 66.2% | 74.1% | 89.4% | 86.2% | 96.3% | 95.3% | 2.2 ± 0.03 µM | 35.4% | 51.1% | 69.9% | 76% | 90.9% | 96.4% | 96.5% | 95.1% | 1.9 ± 0.03 µM | 27.9% | 51.4% | inhibition at 4 µM (MCF-7 (breast cancer)): 66.5%; inhibition at 16 µM (MCF-7 (breast cancer)): 97%; inhibition at 32 µM (MCF-7 (breast cancer)): 97.4%; inhibition at 64 µM (MCF-7 (breast cancer)): 97.1%; inhibition at 128 µM (MCF-7 (breast cancer)): 97.4%; IC50 (MCF-7 (breast cancer)): 1.5 ± 0.01 µM; inhibition at 1 µM (normal cell line LX-2): 8.56%; inhibition at 2 µM (normal cell line LX-2): 9.36%; inhibition at 4 µM (normal cell line LX-2): 14.5%; inhibition at 8 µM (normal cell line LX-2): 26.4%; inhibition at 16 µM (normal cell line LX-2): 43.4%; inhibition at 32 µM (normal cell line LX-2): 56.2%; inhibition at 64 µM (normal cell line LX-2): 77.2%; inhibition at 128 µM (normal cell line LX-2): 98.1%; IC50 (normal cell line LX-2): > 40 µM |
